IC50 data for four compounds are collected here from US5081152A, “Azulene derivatives as thromboxane A2 and prostaglandin endoperoxide receptor antagonist” (Kotobuki Seiyaku Co., Ltd., priority 1989, dated 1992).

pIC50: −log10 of the molar value. Counter-ions that a name gives are not always drawn.

For this assay, the target named is T1, Thromboxane A2 receptor (Rattus norvegicus, UniProt P34978).
T1 sequence (P34978 1-341): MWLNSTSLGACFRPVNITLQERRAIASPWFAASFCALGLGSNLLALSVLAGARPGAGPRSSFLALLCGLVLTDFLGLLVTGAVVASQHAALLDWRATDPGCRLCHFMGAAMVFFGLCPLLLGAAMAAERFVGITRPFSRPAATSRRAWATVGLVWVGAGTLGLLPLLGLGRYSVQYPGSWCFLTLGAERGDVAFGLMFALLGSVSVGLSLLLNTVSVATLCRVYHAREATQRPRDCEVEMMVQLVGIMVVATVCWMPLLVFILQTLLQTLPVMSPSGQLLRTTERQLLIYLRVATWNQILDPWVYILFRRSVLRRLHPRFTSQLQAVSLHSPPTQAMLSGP
As to the kind of experiment: Thromboxane A2 receptor antagonistic action (inhibitory action of U-46619-induced contractions of rat aortic strips). In kind it is cell-based. Particulars: isolated helical strips of rat aorta precontracted with 3×10^-8 M U-46619; read-out: IC50 (the concentrations which inhibited the contraction by 50%).
For `CC(C)c1ccc2c(C=CC(=O)O)cc(CCCCNS(=O)(=O)c3ccccc3)c-2cc1` [Compound 36, 3-[6-Isopropyl-3-[4-(benzenesulfonylamino)butyl]-azulene-1-yl]-2-propenoicacid], the pIC50 was 5.62.

In the case of `CC(C)c1ccc2c(CCCCNC(=O)c3ccccc3)cc(C(=O)O)c-2cc1` [Compound 41, 6-Isopropyl-3-[4-(benzoylamino)butyl]-azulene-1-carboxylic acid], the pIC50 was 5.36.

On to `CC(C)c1ccc2c(CCC[C@H](C)NS(=O)(=O)c3ccccc3)cc(C(=O)O)c-2cc1` [Compound 62, 6-isopropyl-3-[(4S)-(benzenesulfonylamino)pentyl]-azulene-1-carboxylicacid], for which the pIC50 is 7.30.

For `CC(C)c1ccc2c(CCCCNS(=O)(=O)c3ccc(Cl)cc3)cc(S(=O)(=O)O)c-2cc1` [Compound 48, 6-Isopropyl-3-[4-(P-chlorobenzenesulfonylamino)butyl]-azulene-1-sulfonic acid sodium salt], the pIC50 is 8.77.
